In patent US9469854B2, “Pharmaceutical composition for treating liver diseases” (Academia Sinica, priority 2014, dated 2016):

Key:
[1] = tested on: ACSM2A; experiment: qRT-PCR mRNA expression in primary human hepatocytes; assay type: cell-based; settings: PHH, 40 μM berberine, 2-4 h
Protocol: (§1) The primary human hepatocytes from Caucasian donors were purchased from Invitrogen and cultured following the manufacturer's instructions. The hepatocytes were thawed and transferred into cryopreserved hepatocytes recovery medium (CM7000, Invitrogen), centrifuging at room temperature, 100×g for 10 min. Then, the hepatocytes were diluted to seeding density with plating medium (CM3000, Invitrogen) and added into collagen I-coated plates (Invitrogen). These plates were incubated at 37° C. for 4-6 hours under 5% CO2 for forming a monolayer. Then, plating medium was replaced by overlay incubation medium (CM4000 and 0.35 mg/mL Geltrex™ Matrix, Invitrogen), and the incubation medium was replaced daily. In the following examples, hepatocytes form 3 to 4 donors were used for experiments. A 50 mM stock solution of berberine chloride (Sigma-Aldrich) was prepared in dimethyl sulfoxide (DMSO). Cells were treated with 40 μM of berberine chloride or 0.08% DMSO as the control. For induction of lipid droplets formation in cultured cells, 200 μM of oleic acid (Sigma-Aldrich) was added into the culture medium for 24 h. Total RNA was extracted using a TRIZOL reagent (Invitrogen) according to the manufacturer's protocol. The total RNA quantity was measured using a NanoDrop ND-1000 spectrophotometer (Nanodrop Technologies). The total RNA quality and integrity were assayed using an Agilent 2100 bioanalyzer with an RNA 6000 nano kit (Agilent Technologies). Total RNAs (1 μg) were reverse-transcribed into cDNA by using M-MuLV Reverse Transcriptase (Thermo) and Oligo(dT)12-18 primers (Invitrogen) according to the manufacturer's protocol. The cDNA were then used for a real-time PCR with a LightCycler 480 SYBR Green I Master (Roche) by using primers shown in the following Table 1. The gene expression levels were normalized to GAPDH levels.

[2] = tested on: NAMPT; experiment: as above; assay type: cell-based; settings: PHH, 40 μM berberine, 4-8 h
Protocol: as §1

[3] = tested on: IL6R; experiment: as above; assay type: cell-based; settings: PHH, 40 μM berberine, 4-8 h
Protocol: as §1

[4] = tested on: MAT2A 3′ UTR; experiment: Dual luciferase reporter assay in HEK 293T cells; assay type: cell-based, human
Protocol: (§2) Full-length 3′ UTRs of MAT2A and MAT2B were amplified from the genomic DNA of HepG2 cells through PCR.
(§3) The PCR products were then cloned into the pMIR-REPORT Luciferase miRNA Expression Reporter Vector (Invitrogen), and all inserted sequences in the 3′ UTR constructs were checked using the ABI PRISM DNA sequencer.
(§4) The mutagenesis of the target sequences of hsa-miR-21-3p in MAT2A and MAT2B 3′ UTRs was performed using the QuikChange site-directed mutagenesis kit (Agilent) according to the manufacturer's standard protocol.
(§5) All mutated sequences, including Site 1, Site 2 and the double mutation of the MAT2A and the 3′ UTR mutant construct of MAT2B, were checked through DNA sequencing.
(§6) The HEK-293T and HepG2 cells were seeded at a density of 5×10^4 cells per well in a 24-well culture plate the day before transfection. The HEK-293T and HepG2 cells were tri-transfected with (1) any one of the above-mentioned pMIR-REPORT-3′ UTR construction (300 ng), (2) the control Renilla luciferase reporter plasmid pRL-TK from Promega (10 ng), and (3) 50 nM of hsa-miR-21-3p mimic or negative-control mimic by using the Lipofectamine 2000 transfection reagent (Invitrogen) according to the manufacturer's instructions. Luciferase assays were performed after transfection for 48 h by using the Dual Luciferase reporter assay kit (Promega) and the Paradigm detection platform (Beckman) according to the manufacturer's protocol. The firefly luciferase activity was normalized relative to the Renilla luciferase activity.

[5] = tested on: MAT2B 3′ UTR; experiment: Dual luciferase reporter assay in HEK 293T cells; assay type: cell-based, human
Protocol: as §2, §3, §4, §5, §6

[6] = tested on: HepG2 cells; experiment: BrdU incorporation cell proliferation assay; assay type: cell-based, human; settings: HepG2, mimic 24 h plus additional 24 h BrdU, vs NC mimic
Protocol: The HepG2 cells were seeded at a density of 1×10^4 cells per well in a 96-well culture plate the day before transfection. After transfection with 50 nM of hsa-miR-21-3p mimic or the negative-control mimic for 24 h, the cultured media were refreshed with complete media containing the BrdU reagent, and incubated for an additional 24 hour for BrdU incorporation. The BrdU incorporation was quantified by using the BrdU cell proliferation colorimetric ELISA kit (abcam) according to the manufacturer's protocol and detected using the MRX II microplate reader (DYNEX).

[7] = tested on: 3′ UTR of ACACA; experiment: Reporter examination of miR-21-3p and ACACA 3′ UTR (technology similar to Example 6); assay type: cell-based, human; settings: data not shown
Protocol: as §6

[8] = tested on: MAT2A 3′ UTR; experiment: Dual luciferase reporter assay in HepG2 cells; assay type: cell-based, human
Protocol: as §2, §3, §4, §5, §6

[9] = tested on: MAT2B 3′ UTR; experiment: Dual luciferase reporter assay in HepG2 cells; assay type: cell-based, human
Protocol: as §2, §3, §4, §5, §6

[10] = wild-type 3′ UTR, 50 nM mimic, 48 h
[11] = HepG2, wild-type 3′ UTR, 50 nM mimic, 48 h

Compound | mRNA expression of ACSM2A [1] | mRNA expression of NAMPT [2] | mRNA expression of IL6R [3] | luciferase reporter expression decrease, Site 1 mutated MAT2A 3′ UTR ([4]; Site 1 (+180-200) mutated) [fold] | luciferase reporter expression decrease, MAT2A 3′ UTR [4, 10] [fold] | luciferase reporter expression change, mutated MAT2B 3′ UTR ([5]; seed match (+399-418) mutated) | luciferase reporter expression decrease, MAT2B 3′ UTR [5, 10] [fold] | inhibition of cellular proliferation (BrdU incorporation) [6] [fold] | suppression of ACACA expression via 3′ UTR [7] | luciferase reporter expression decrease, Site 1 mutated MAT2A 3′ UTR ([8]; HepG2, Site 1 (+180-200) mutated) [fold] | luciferase reporter expression decrease, MAT2A 3′ UTR [8, 11] [fold] | luciferase reporter expression change, Site 2 mutated MAT2A 3′ UTR ([8]; Site 2 (+1267-1288) mutated, cells not named in sentence (FIG. 5C: HEK293T and HepG2)) | luciferase reporter expression change, double-mutated MAT2A 3′ UTR ([8]; both Site 1 and Site 2 mutated, cells not named in sentence (FIG. 5C: HEK293T and HepG2)) | luciferase reporter expression change, mutated MAT2B 3′ UTR ([9]; HepG2, seed match (+399-418) mutated) | luciferase reporter expression decrease, MAT2B 3′ UTR [9, 11] [fold]
COc1ccc2cc3[n+](cc2c1OC)CCc1cc2c(cc1-3)OCO2 [berberine] | considerably decreases | increase | decreases | – | – | – | – | – | – | – | – | – | – | – | –
hsa-miR-21-3p (CAACACCAGUCGAUGGGCUGU; listed as RNA, chemistry not given here) [miR-21-3p mimic] | – | – | – | 1.5 | 1.6 | remained unchanged | 2.3 | 1.7 | suppressed the expression of ACACA, but not though its 3′ UTR sequence | 1.5 | 1.5 | did not notably change | did not notably change | remained unchanged | 1.4
